# Data from patent publication US20240016773A1, “COMPOSITIONS AND METHODS FOR DIAGNOSIS AND TREATMENT OF CONDITIONS RELATED TO AGING” (EPITRACKER, INC., priority 2018, published 2024).
# Experiments:
# [1] = test system: obese mouse model (C57BL/6J mice fed a high fat diet); experiment: High fat diet obese mouse model, daily oral pentadecanoic acid; type: in vivo
# Procedure: This study examined the impact of daily oral administration of synthetic pentadecanoic acid (C15:0) on total and LDL cholesterol in an obese mouse model. Twenty C57BL/6J mice were fed a high fat diet (HFD) (D12492, 60% kcals fat) for 8 weeks. Study mice were then divided into the following two groups of ten: vehicle controls and pentadecanoic acid—treated (5 mg/kg body weight). The test article was a synthetic powder form stable at room temperature and purchased from Sigma-Aldrich (Products W433400 (≥99% C15:0). The test article was provided daily via gastric gavage for 12 weeks (84 days) while continuing ad libitum access to the HFD. Total cholesterol and low-density lipoprotein (LDL) cholesterol were measured at Day 0 and Day 84. Data from the treated group were compared to the control group using Wilcoxon rank sum analyses. Significance was defined as a P value less than or equal to 0.05.
# [2] = test system: Primary endothelial cells stimulated with IL-1β, TNF-α, and IFNγ; experiment: Second cell-based system: Th1 inflammatory and prothrombotic environment; parameters: species or system human
# Procedure: (§1) This study examined the impact of synthetic pentadecanoic acid (C15:0) at four concentrations (740 nm and 2.2, 6.7, and 20 μM) on three primary human cell-based activity systems that were exposed to agents that mimicked allergic, thrombotic, and fibrotic disease states. In general, protein-based biomarkers in these systems were measured and compared with controls. Pentadecanoic acid was considered ‘active’ when 2 or more consecutive concentrations changed a given biomarker in the same direction relative to vehicle controls, were outside of the significance envelope of internal controls, and had at least one concentration with an effect size greater than 20% (log 10 ratio >0.1).
# The second cell-based system recapitulated a Th1 inflammatory and prothrombotic environment. Primary endothelial cells were stimulated with IL-1β, TNF-α, and IFNγ and incubated with pentadecanoic acid for 24 hours. In addition to controls that were not treated with pentadecanoic acid, a negative, non-stimulated system was also included. Urokinase plasminogen activator receptor (uPAR) activation in this system was measured and compared with controls.
# [3] = test system: Primary dermal fibroblasts stimulated with IL-1β, TNFα, IFNγ, EGF, bFGF, and PDGF-BB; experiment: Third cell-based system: fibrosis and cell proliferation; parameters: species or system human
# Procedure: as §1
# The third cell-based system recapitulated fibrosis and cell proliferation. Primary dermal fibroblasts were stimulated with IL-1β, TNFα, IFNγ, EGF, bFGF, and PDGF-BB and incubated with pentadecanoic acid for 24 hours. In addition to controls that were not treated with pentadecanoic acid, a negative, non-stimulated system was also included. Plasminogen activator inhibitor-1 (PAI-1), Collagen-I and fibroblast proliferation (at 72 hours) in this system were measured and compared with controls.
# [4] = test system: HDF3CGF system: dermal fibroblasts (IFNγ, TNFα, IL-1β, EGF, bFGF, PDGF-BB); experiment: BioMAP Diversity PLUS, HDF3CGF system; type: cell-based, human; conditions: HD3CGF (so in the source)
# Text: (§2) The Diversity PLUS panel allows test agent characterization in an unbiased way across a broad set of systems modeling various human disease states. These systems are designed to model complex human tissue and disease biology of the vasculature, skin, lung, and inflammatory tissues. Quantitative measurements of 148 biomarker activities across this broad panel, along with comparative analysis of biological activities from known bioactive agents, were used to predict and compare the efficacy and function of each selected compound at four concentrations (740 nm and 2.2, 6.7 and 20 μM).
# (§3) BioMAP systems are constructed with one or more primary cell types from healthy human donors, with stimuli (such as cytokines or growth factors) added to capture relevant signaling networks that naturally occur in human tissue or pathological conditions. Vascular biology is modeled in both a Th1 (3C system) and a Th2 (4H system) inflammatory environment, as well as in a Th1 inflammatory state specific to arterial smooth muscle cells (CASM3C system). Additional systems recapitulate aspects of the systemic immune response including monocyte-driven Th1 inflammation (LPS system) or T cell stimulation (SAg system), chronic Th1 inflammation driven by macrophage activation (lMphg system) and the T cell-dependent activation of B cells that occurs in germinal centers (BT system). The BE3C system (Th1) and the BF4T system (Th2) represent airway inflammation of the lung, while the MyoF system models myofibroblast-lung tissue remodeling. Lastly, skin biology is addressed in the KF3CT system modeling Th1 cutaneous inflammation and the HDF3CGF system modeling wound healing.
# (§4) Each test agent generates a signature BioMAP profile that is created from the changes in protein biomarker readouts within individual system environments. Biomarker readouts (7-17 per system) are selected for therapeutic and biological relevance, are predictive for disease outcomes or specific drug effects and are validated using agents with known mechanism of action (MoA). Each readout is measured quantitatively by immune-based methods that detect protein (e.g., ELISA) or functional assays that measure proliferation and viability. BioMAP readouts are diverse and include cell surface receptors, cytokines, chemokines, matrix molecules and enzymes. In total, the Diversity PLUS panel contains 148 biomarker readouts that capture biological changes that occur within the physiological context of the particular BioMAP system. Specific BioMAP activities have been correlated to in vivo biology, and multiparameter BioMAP profiles have been used to distinguish compounds based on MoA and target selectivity across diverse physiological systems.
# (§5) Activated BioMAP systems were incubated with each compound for 24 to 72 hours. Protein-based biomarkers from activated cell systems were measured and compared with non-treated control systems.
# [5] = test system: twelve different human primary cell systems mimicking various disease states; experiment: BioMAP Diversity PLUS panel, twelve human primary cell systems (summary by disease); type: cell-based; parameters: key: x: Significantly reduced cell-based biomarkers relevant to specific diseases and conditions
# Text: As a proof of concept, 14 compounds were selected from our compound library based on predicted efficacy in lowering inflammation in dolphins. Pure synthetic forms of these compounds were screened for cell-based activities (relevant to multiple aging-associated diseases and diseases that may impact longevity) using twelve different human primary cell systems mimicking various disease states (TABLE 4—description of primary human cell systems used to screen selected compounds in library).
# as §2, §3, §4, §5
# [6] = 24 hours incubation, 6.7 μM and 20 μM bioactive, vs controls
# [7] = all four concentrations (740 nm and 2.2, 6.7, and 20 μM)
smiles,measurement,setting,value
"CCCCCCCCCCCCCCC(=O)O [Pentadecanoic acid, pentadecanoic acid]",Tolerability of test article,"[1]; 5 mg/kg daily gavage, 12 weeks, HFD mice",tolerated the test article throughout the study
same,Total Cholesterol,"[1]; Index at Day 84, 5 mg/kg dose daily via gastric gavage for 12 weeks, HFD mice, P 0.032 vs HFD control",183 + 25 mg/dl
same,LDL Cholesterol,"[1]; Index at Day 84, 5 mg/kg dose daily via gastric gavage for 12 weeks, HFD mice, P 0.036 vs HFD control",6.3 ± 3.6 mg/dL
same,Percent body weight gain compared to control mice on high fat diet alone,"[1]; oral daily for 12 weeks, obese mice on high fat diet",lower percent body weight gain
same,Early mortalities,"[1]; treated group, 5 mg/kg daily gavage, 12 weeks",no early mortalities
same,uPAR (FIG. 3),[2]; [6],increases
same,Cytotoxicity,[2]; [7],non-cytotoxic
same,Collagen-I (FIG. 4),[3]; [6],decreases
same,PAI-1 (FIG. 4),[3]; [6],decreases
same,72-hour fibroblast proliferation (FIG. 4),"[3]; 72 hours, 6.7 μM and 20 μM bioactive, vs controls",decreases
same,Cytotoxicity,[3]; [7],non-cytotoxic
same,Significant log10 reduction vs nontreated controls: 72-hour fibroblast proliferation,[4]; 6.7 μM,−0.67 log10
same,Significant log10 reduction vs nontreated controls: Collagen I,[4]; 6.7 μM,−0.07 log10
same,Significant log10 reduction vs nontreated controls: Plasminogen activation inhibitor 1 (PAI-1),[4]; 6.7 μM,−0.08 log10
same,Significant log10 reduction vs nontreated controls: 72-hour fibroblast proliferation,[4]; 20.0 μM,−1.1 log10
same,Significant log10 reduction vs nontreated controls: Collagen I,[4]; 20.0 μM,−0.13 log10
same,Significant log10 reduction vs nontreated controls: Collagen III,[4]; 20.0 μM,−0.13 log10
same,Significant log10 reduction vs nontreated controls: Interferon gamma-induced protein 10 (IP-10)/CXCL10,[4]; 20.0 μM,−0.14 log10
same,Significant log10 reduction vs nontreated controls: Interferon-inductible T cell alpha chemoattractant (I-TAC)/CXCL11,[4]; 20.0 μM,−0.17 log10
same,Significant log10 reduction vs nontreated controls: Monokine induced by gamma interferon (MIG)/CXCL9,[4]; 20.0 μM,−0.10 log10
same,Significant log10 reduction vs nontreated controls: Plasminogen activation inhibitor 1 (PAI-1),[4]; 20.0 μM,−0.13 log10
same,Significant log10 reduction vs nontreated controls: Vascular cell adhesion molecule 1 (VCAM-1),[4]; 20.0 μM,−0.28 log10
same,Significantly reduced cell-based biomarkers relevant to: Allergy,[5]; Table 6,x
same,Significantly reduced cell-based biomarkers relevant to: Asthma,[5]; Table 6,x
same,Significantly reduced cell-based biomarkers relevant to: Autoimmunity,[5]; Table 6,x
same,Significantly reduced cell-based biomarkers relevant to: Hematological oncology,[5]; Table 6,x
same,Significantly reduced cell-based biomarkers relevant to: SLE,[5]; Table 6,x
same,Significantly reduced cell-based biomarkers relevant to: T-cell dependent B cell proliferation,[5]; Table 6,x
same,Significantly reduced cell-based biomarkers relevant to: Chronic inflammation,[5]; Table 7,x
same,Significantly reduced cell-based biomarkers relevant to: Organ transplantation,[5]; Table 7,x
same,Significantly reduced cell-based biomarkers relevant to: Psoriasis,[5]; Table 7,x
same,Significantly reduced cell-based biomarkers relevant to: Rheumatoid arthritis,[5]; Table 7,x
same,Significantly reduced cell-based biomarkers relevant to: Thl type inflammation,[5]; Table 7,x
same,Significantly reduced cell-based biomarkers relevant to: Crohn's disease,[5]; Table 8,x
same,Significantly reduced cell-based biomarkers relevant to: Fibrosis,[5]; Table 8,x
same,Significantly reduced cell-based biomarkers relevant to: Hematological oncology,[5]; Table 8,x
same,Significantly reduced cell-based biomarkers relevant to: Stromal biology in tumors,[5]; Table 8,x
